Results as given in patent US10316057B2, “Tandem facial amphiphiles” (WISCONSIN ALUMNI RESEARCH FOUNDATION, priority 2011, dated 2019).
“And” between values parts separate entries of the source, which are not always exact repeats. Equal entries are not always repeated. Structures can show the parent of a compound that is named as a salt.

What was measured:
[1] = Critical micelle concentration by solubilization of a hydrophobic fluorescent dye; type: physicochemical; conditions: mean ± SD, n = 3
Excerpt: The “Critical Micelle Concentration” (CMC) refers to the concentration of a detergent (e.g., an amphiphile as described herein) in an aqueous solution at which the detergent molecules self-assemble into micelles. Below the CMC, detergents are mostly monomeric; above the CMC, micelle concentration increases linearly with detergent concentration. The CMC is dependent upon many factors and is detergent-specific. The CMC of a detergent can be determined experimentally by measuring the solubilization of a water-insoluble dye or fluorophore while varying the concentration of detergent. A CMC may also be determined by measuring the diminution of the surface tension of an aqueous solution as a function of detergent concentration (CMCs determined by either method correlate with each other). The CMC is determined by extrapolating the plot of solubilization vs. concentration (or surface tension vs. concentration) in the two linear regions above and below the CMC. Where the two lines intersect is the CMC. The CMC can also be determined by the method of Nugebauer, J. M. (1990), Methods in Enzymology, 182:239-253.
TFA-0 forms a hydrogel at concentrations >0.4 wt %, and this compound was not studied further. The other three TFAs are soluble to 5-10 wt % in aqueous media. Critical micelle concentrations (CMC) were determined by monitoring solubilization of a hydrophobic fluorescent dye, […] (Chattopadhyay et al., Anal. Biochem. 1984, 139, 408-412), and the hydrodynamic radii (Rh) of the micelles were determined via dynamic light scattering (DLS). Table 1 compares the data for TFAs with those for DDM, a conventional detergent that is very widely used for MP applications; DDM and the TFAs share maltose as their hydrophilic moieties. CMC values of the three TFAs are smaller than that of DDM, whether CMC is measured in units of mM or wt %.
Analysis of these TFAs for their CMC values provided the data in Table 3.

[2] = Micelle characterization by gel filtration with triple detector analysis (TDA); type: physicochemical; conditions: for dn/dc, specific refractive index increment / IV, intrinsic viscosity / N, aggregation number of micelles / Rh (nm) / MMW, molecular weight of micelles / Mw/Mn, weight-averaged molecular weight divided by number-averaged molecular weight: TDA; for IV, intrinsic viscosity / N, aggregation number of micelles / Rh (nm) / MMW, molecular weight of micelles: 20 mM HEPES, 150 mM NaCl buffer; for IV, intrinsic viscosity / N, aggregation number of micelles / Rh (nm) / MMW, molecular weight of micelles / Mw/Mn, weight-averaged molecular weight divided by number-averaged molecular weight: mean ± SD; for MMW, molecular weight of micelles: TFA-1 n = 6, DDM n = 8; for Mw/Mn, weight-averaged molecular weight divided by number-averaged molecular weight: micelles; for MW of micelles in water: summary statement
Procedure: Micelles formed by DDM or by TFA-1 in pH 7.0 buffer (20 mM HEPES, 150 mM NaCl) were further characterized by gel filtration using a triple-detector system (Gatta et al., Anal. Biochem. 2010, 404, 21-29), analyzing light scattering, refractive index, and differential pressure (Table 2). In both cases the micelles are globular and monodisperse. TFA-1 micelles contain only 6 molecules, which contrasts with the ˜175 molecules in a DDM micelle. TFA-2 (R=ethyl) behaved similarly to TFA-1 (R=methyl), given the similarity in Rh, but TFA-3 (R=butyl) forms larger micelles. A related trend was observed among lipopeptides, with increasing length of the alkyl appendages leading to increasing micelle size (McGregor et al., Nat. Biotech. 2003, 21, 171-176).
The on-line SEC triple detector array (Gatta et al., Anal. Biochem. 404, 21 (2010)) (Viscotek Corporation, a Malvern Company) used for detergent analysis is composed of 1) a 660 nm differential refractometer for quantifying the concentration C (mg/mL) for all molecules according to their specific refractive index increment do/dc (mL/g) using Snell's Law of Refraction (RI signal=KRI*C*(dn/dc)/RISol), 2), a single right angle 90° static light scattering (RALS) detector for measuring the average mass M (Da) according to the Raleigh Light Scattering Equation for small molecules (LS90° signal=Mavg*RIsol^2*C*(dn/dc)^2)/KLS*Kopt, where Kopt=4*π^2/(λ^4*NA), and 3) an absolute differential viscometer (Haney, J. Appl. Polym. Sci. 30, 3023 (1985)) for measuring differential pressure (DP) and calculating intrinsic viscosity (IV; dL/g) according to Newtonian Viscosity (liquid layers) applied to tubes using Poiseulle's Law (DP signal=IV*C) and for calculating the radius of hydration Rh (nm) according to Einstein's volume of hydration equation for hard spheres (Rh=[( 3/10π)*IV*M/NA]^1/3).
The IV represents molecular shape and for proteins it can vary from 0.017 dl/g for globular shapes to 0.355 dl/g for elongated shapes to 0.499 dl/g for complete denaturation (Scheraga and Mandelkern, J. Chem. Phys. 75, 179-184 (1953); Dutta et al., J. Chromatogr. 536, 113-121 (1991); Chenal et al., J. Biol. Chem. 16, 284(3), 1781-1789 (2009)). The chromatography pump, injector, SEC column (0.75×60 cm TSK G3000 plus guard column), and TDArray are placed in a 4° C. cold box, while the buffer (degassed for more than 1 hr with stir prior use) is at room temperature (RT) to allow it to be run through a RT on-line degasser, which then runs though 3 ft of 4° C. stainless steel tubing before entering the SEC pump, injector and column. The extensive degassing insures an accurate DP measurement. With this configuration, the temperature at the detectors is 6° C. TDA buffer was 20 mM Hepes, 150 mM NaCl, […] and either 0.1 mM TFA-1 or 1 mM DDM. The refractive index of the solvent RISol was measured at 10° C. using an Anton Paar Abbemat temperature controlled refractometer at 589.2 nm. Triple detection data at every 5 Hz data point throughout the complete SEC peak were used for all analysis.
For calibration, the detector response factors KRI and KLS were measured using Ovalbumin Fraction VII (Sigma). Prior to calibration, ovalbumin was first purified by SEC (280 nm detection) at 4° C. to remove small populations of dimers and aggregates, and to insure Gaussian detector peaks for TDA calibration. Ovalbumin was solubilized at 26 mg/mL in TDA buffer at 4° C. for 10 min and clarified by centrifugation (10 min 15,000×g); collecting the top 30% of the SEC elution peak from 500 μL injections yielded monodisperse ovalbumin at 5-7 mg/mL. Ovalbumin mass was 44.3 kDa (Sigma Product Information sheet and references therein) with a 0.701 dA280nm/dc (Pace et al., Prot. Sci. 4(11), 2411-2423 (1995)) and 0.187 dn/dc (Maezawa et al., Biochem. Biophys. Acta 747, 291-297 (1983); Hayashi et al., Methods Enzymol. 172, 514-528 (1989)). […]

Row | Structure (SMILES) | CMC [1] | CMC (wt %) [1] | dn/dc, specific refractive index increment [2] | IV, intrinsic viscosity [2] | N, aggregation number of micelles [2] | Rh (nm) [2] | MMW, molecular weight of micelles [2] | Mw/Mn, weight-averaged molecular weight divided by number-averaged molecular weight [2] | MW of micelles in water [2]
1 | CCCCCCCCCCCCO[C@@H]1O[C@H](CO)[C@@H](O[C@H]2O[C@H](CO)[C@@H](O)[C@H](O)[C@H]2O)[C@H](O)[C@H]1O [DDM, dodecyl-β-D-maltoside, reference compound] | 170 µM | 0.009 wt % and 0.0087 wt % | 0.130 mL/g | 0.028 ± 0.009 dL/g | 176.4 ± 1.3 | 3.42 ± 0.04 nm | 89982 ± 663 Da | 1.01 ± 0.00 | ~90 kD
2 | C[C@H](CCC(=O)N(C)CCCN(C)C(=O)CC[C@@H](C)[C@H]1CC[C@H]2[C@@H]3CC[C@@H]4C[C@H](O[C@@H]5O[C@H](CO)[C@@H](O[C@H]6O[C@H](CO)[C@@H](O)[C@H](O)[C@H]6O)[C@H](O)[C@H]5O)CC[C@]4(C)[C@H]3C[C@H](O[C@@H]3O[C@H](CO)[C@@H](O[C@H]4O[C@H](CO)[C@@H](O)[C@H](O)[C@H]4O)[C@H](O)[C@H]3O)[C@]12C)[C@H]1CC[C@H]2[C@@H]3CC[C@@H]4C[C@H](O[C@@H]5O[C@H](CO)[C@@H](O[C@H]6O[C@H](CO)[C@@H](O)[C@H](O)[C@H]6O)[C@H](O)[C@H]5O)CC[C@]4(C)[C@H]3C[C@H](O[C@@H]3O[C@H](CO)[C@@H](O[C@H]4O[C@H](CO)[C@@H](O)[C@H](O)[C@H]4O)[C@H](O)[C@H]3O)[C@]12C [TFA-1] | 13 ± 1.4 µM | 0.0028 ± 0.0003 wt % | 0.173 mL/g | 0.036 ± 0.005 dL/g | 6 and 6.2 ± 0.07 | 1.96 ± 0.01 nm | 13279 ± 157 Da | 1.00 ± 0.00 | ~13 kD
